# Results published in PMC8753592, “Long-acting capsid inhibitor protects macaques from repeat SHIV challenges” (Nature, 2021).
# Values joined by “and” are separate entries in the source; they are usually repeats but may differ in a detail not shown here. Equal entries are not always repeated.
# Tested on: SHIV-SF162P3
# Experiment: Repeated escalating-dose rectal SHIV challenge study (plasma viraemia by gag RT-qPCR)
# Format: in vivo, rhesus macaques of Indian origin
# Details: for Proportion of animals protected: 15 weekly rectal challenges, follow-up to week 24; for First viremic timepoint: individual infected animals; for Plasma SHIV viral load: GS-CA1 150mg/kg group
# Method: For the challenge study, 24 outbred rhesus macaques of Indian origin were assigned to the three study groups with even sex and weight distributions. All animals were housed at Alpha Genesis (Yemassee, SC), and all procedures were conducted in compliance with all relevant local, state and federal regulations and were approved by the Alpha Genesis IACUC. […] The injection sites were monitored daily by veterinary staff for 3 days. Beginning in week 1, animals in all three groups were challenged by the intrarectal route with 1 ml of RPMI containing the specified dilution of a 3.62 × 10^3 TCID50 SHIV-SF162P3 stock. At each respective time point, the challenges were performed on the same day, using the same virus stock and inoculation method across the three groups. Whole blood was collected and processed into plasma and PBMCs as necessary to assess routine haematology, clinical chemistry, viral load and serology as well as for bioanalysis of drug levels. The animals were considered to be protected if they remained SHIV negative by plasma PCR assay and seronegative by enzyme immunoassay throughout the 15-week challenge phase and the 9-week follow-up.
# RNA was extracted from rhesus macaque plasma using a QIAcube high-throughput instrument and an IndiSpin QIAcube HT Pathogen kit (Qiagen). RNA standards using the SIV gag sequence were generated by AmpliCap-Max T7 High-Yield Message Maker kit (Cell Script) and were purified using an RNA Clean and Concentrator kit (Zymo Research). Log dilutions of the RNA were included with each RT–qPCR assay. Reverse transcription of standards and samples was performed using a Superscript III VILO kit (Invitrogen). qPCR was performed using forward primer 5′-[…]-3′, reverse primer 5′-[…]-3′ and fluorescently labelled primer 5′-[…]-3′ on a Quantstudio 6 Flex system (Applied Biosystems). The assay LOD was 200 copies gag per ml.
# Protection against acquired infection was analysed using Cox proportional hazard regression models based on the exact partial likelihood for discrete time expressed in weeks, which explicitly accounts for the time-varying viral challenge dose in the model. The hazard ratios with 95% confidence intervals for per-exposure relative reductions in acquisition risk were calculated for the GS-CA1-treated groups, and the results were compared with those for the vehicle-treated control group. Comparisons were considered statistically significant at a two-sided alpha level of 0.05 (P < 0.05). Statistical analyses were performed using GraphPad Prism version 8.1.2, SAS version 9.4 and R Studio software version 4.0.5.
structure (smiles),measurement,setting,value
CC(C)(C#Cc1ccc(-c2ccc(Cl)c3c(NS(=O)(=O)C4CC4)nn(CC(F)F)c23)c([C@H](Cc2cc(F)cc(F)c2)NC(=O)Cn2nc(C(F)F)c3c2C(F)(F)[C@@H]2C[C@H]32)n1)S(C)(=O)=O [GS-CA1],Median weeks to viraemia (95% CI),150 mg/kg single s.c.,"16 weeks and 16 (11, –) weeks"
same,study week until which no viraemia was detected in the group,150 mg/kg single s.c.,11 week
same,per-exposure risk reduction,150 mg/kg single s.c. vs vehicle,87%
same,Proportion of animals protected,150 mg/kg single s.c.,2/8
same,First viremic timepoint,150 mg/kg,16 study week and 13 study week and 11 study week and 14 study week and 17 study week
same,Median weeks to viraemia (95% CI),300 mg/kg single s.c.,"Not reached (17, –)"
same,study week until which no viraemia was detected in the group,300 mg/kg single s.c.,17 week
same,per-exposure risk reduction,300 mg/kg single s.c. vs vehicle,97%
same,Proportion of animals protected,300 mg/kg single s.c.,5/8
same,First viremic timepoint,300 mg/kg,17 study week
same,average plasma GS-CA1 at estimated mucosal infection,"2 weeks before first detectable viraemia, nine infected treated animals",31.4 nM
same,plasma GS-CA1 at estimated mucosal infection as multiple of rhesus paEC95,"2 weeks before first detectable viraemia, range 0.4–1.6",1.0
same,Plasma SHIV viral load,"Week 1, individual animals",200 gag RNA copies per ml
same,Plasma SHIV viral load,"Week 2, individual animals",200 gag RNA copies per ml
same,Plasma SHIV viral load,"Week 3, individual animals",200 gag RNA copies per ml
same,Plasma SHIV viral load,"Week 4, individual animals",200 gag RNA copies per ml
same,Plasma SHIV viral load,"Week 5, individual animals",200 gag RNA copies per ml
same,Plasma SHIV viral load,"Week 6, individual animals",200 gag RNA copies per ml
same,Plasma SHIV viral load,"Week 7, individual animals",200 gag RNA copies per ml
same,Plasma SHIV viral load,"Week 8, individual animals",200 gag RNA copies per ml
same,Plasma SHIV viral load,"Week 9, individual animals",200 gag RNA copies per ml
same,Plasma SHIV viral load,"Week 10, individual animals",200 gag RNA copies per ml
same,Plasma SHIV viral load,"Week 11, individual animals, 150 mg/kg",200 gag RNA copies per ml and 2317 gag RNA copies per ml
same,Plasma SHIV viral load,"Week 12, individual animals, 150 mg/kg",200 gag RNA copies per ml and 1251253 gag RNA copies per ml
same,Plasma SHIV viral load,"Week 13, individual animals, 150 mg/kg",200 gag RNA copies per ml and 4495324 gag RNA copies per ml and 15543 gag RNA copies per ml
same,Plasma SHIV viral load,"Week 14, individual animals, 150 mg/kg",200 gag RNA copies per ml and 192698 gag RNA copies per ml and 302527 gag RNA copies per ml and 14481 gag RNA copies per ml
same,Plasma SHIV viral load,"Week 15, individual animals, 150 mg/kg",200 gag RNA copies per ml and 1636073 gag RNA copies per ml and 41252 gag RNA copies per ml and 436449 gag RNA copies per ml
same,Plasma SHIV viral load,"Week 16, individual animals, 150 mg/kg",43433 gag RNA copies per ml and 200 gag RNA copies per ml and 144532 gag RNA copies per ml and 37186 gag RNA copies per ml and 15508 gag RNA copies per ml and 62513 gag RNA copies per ml
same,Plasma SHIV viral load,"Week 17, individual animals, 150 mg/kg",28104 gag RNA copies per ml and 200 gag RNA copies per ml and 128422 gag RNA copies per ml and 4020 gag RNA copies per ml and 5872 gag RNA copies per ml and 1974 gag RNA copies per ml and 76901 gag RNA copies per ml
same,Plasma SHIV viral load,"Week 18, individual animals, 150 mg/kg",8535 gag RNA copies per ml and 200 gag RNA copies per ml and 144695 gag RNA copies per ml and 18625 gag RNA copies per ml and 13017 gag RNA copies per ml and 2250 gag RNA copies per ml and 14905 gag RNA copies per ml
same,Plasma SHIV viral load,"Week 19, individual animals, 150 mg/kg",2197 gag RNA copies per ml and 200 gag RNA copies per ml and 23783 gag RNA copies per ml and 733 gag RNA copies per ml and 4607 gag RNA copies per ml and 1586 gag RNA copies per ml and 872 gag RNA copies per ml
same,Plasma SHIV viral load,"Week 20, individual animals, 150 mg/kg",200 gag RNA copies per ml and 533 gag RNA copies per ml and 294 gag RNA copies per ml and 1229 gag RNA copies per ml
same,Plasma SHIV viral load,"Week 21, individual animals, 150 mg/kg",200 gag RNA copies per ml and 8674 gag RNA copies per ml and 2199 gag RNA copies per ml
